Like-named read-outs stand apart in the source and are kept apart here.
How the values were obtained:
[1] = dog, in vivo
Description: (§2) Mongrel dogs are anesthetized with sodium pentabarbitol (Diabatol, 0.55 cc/kg) and 0.8-3 mCi of [^11 C] MHDA is injected through a femoral vein. After 1 minute, serial blood samples are taken using a femoral vein catheter to determine the blood clearance rate. A 3 ml aliquot is taken every minute for the first 5 minutes, every 5 minutes for the next 15 minutes, and every 10 minutes for the next hour. The blood samples are weighed, counted in a well-scintillation counter, and the activity corrected for decay.
(§3) In order to determine the distribution over time of the [^11 C] […] Prior to imaging, each dog is placed between the camera heads, a phantom filled with an aqueous solution of ^68 Ga Cl3 is placed beneath the animal, and transmission images taken. Sequential images are collected for 1 minute each at the following times: 3 minutes, 8 minutes, 13 minutes, 28 minutes, 48 minutes, and 60 minutes. The images are corrected for decay and for photon attenuation.
(§4) In a companion biodistribution study, uptake in 2 dogs in different areas of the myocardium and average uptake for the whole heart are determined. […] Positron tomography images are obtained of the heart and liver of the 2 dogs 3, 13, and 48 minutes after injection with [^11 C] […] Into each dog there is injected, sequentially, [^11 C] […] HDA.

[2] = Imaging study of a canine heart one hour post-LAD ligation; format: in vivo; conditions: dog
Source text: In addition to its long retention time, [^11 C] […] An imaging study of a canine heart following [^11 C]

[3] = Myocardial kinetics by positron tomography in adult, fasted, human volunteers; format: in vivo; conditions: 1-5 mCi intravenously
Description: (§1) The myocardial kinetics of BMHDA are evaluated in adult, fasted, human volunteers by positron tomography. Following attenuation measurements, volunteers receive between 1-5 mCi [^11 C] BMHDA intravenously and serial images are recorded for 30 min. No changes in heart rate, blood pressure, ECG, or respiratory rate are observed.

[4] = Heart rate, blood pressure, ECG and respiratory rate in human volunteers receiving the tracer; format: in vivo; conditions: 1-5 mCi intravenously
Description: as §1

[5] = Tissue distribution study in CD Fischer rats (organ radioactivity, NaI well scintillation counter); format: in vivo; conditions: rat
Description: CD Fischer rats (175-225 g) are anesthetized with ether and 0.2 ml ([…]) of [^11 C] BMHDA is injected through the femoral vein. The rats are sacrificed by ether asphyxiation at 5, 15, 30, and 60 minutes after dosing. The appropriate organs are excised and radioactivity measured in a NaI (T1) well scintillation counter.

[6] = Biodistribution and positron tomography imaging of the heart and liver in mongrel dogs; conditions: dog, images 3, 13 and 48 minutes after injection, [^11 C] BMHDA versus [^11 C] HDA
Description: as §2, §3, §4

[7] = Biodistribution in mice; format: in vivo
[8] = Sequential positron tomography imaging of the heart in a mongrel dog, 201Tl as control; format: in vivo
Description: Solutions of [^131 I]-BMPTA and, as a control, ^201 T1, are injected sequentially in a mongrel dog. After each injection, sequential images of the dog's heart are obtained using positron tomography.

[9] = throughout the monitoring period

## CCCCCCCCCCCCCCC(C)C[11C](=O)O (stereo not drawn) [[^11 C] BMHDA, [1-^11 C] beta-methylheptadecanoic acid]
[1]
  radioactivity in the myocardium over time: remains constant throughout the experiment (60 minutes)
  region of highest regional uptake in the myocardium: left ventricle
  wash-out from / retention in the myocardium: much higher retention in the myocardium
[2]
  uptake in normal areas of the heart: very high uptake
  uptake in the apex, the region in which the infarct is located: much lower uptake
  uptake pattern: desirably selective uptake pattern
[3]
  time in which myocardial activity approaches a constant level: ≤ 3 min
[3]; serial images for 30 min
  myocardial activity for the remainder of the observation: constant for the remainder of the observation
[4]
  ECG: No changes
  blood pressure: No changes
  heart rate: No changes
  respiratory rate: No changes
[5]; i.v. (femoral vein), 5-60 min
  extraction by the heart muscle: selectively extracted by the heart muscle
  retention of radioactivity in the heart: retained in the heart for up to one hour
[5]; i.v., 5-60 min
  liver activity: increases during the course of the study
[5]; i.v., compared with heart activity
  lung activity: at all times lower than heart activity

## CCCCCCCCCCCCCCCCC(=O)O [[^11 C] HDA, [^11 C] heptadecanoic acid]
[6]
  wash-out from / retention in the myocardium: rapidly washes out of the tissue

## CC(CCCCCCCCCCCc1ccc([131I])cc1)CC(=O)O (stereo not drawn) [[^131 I]-BMPTA, Beta-methyl-omega-(p-[^131 I]iodophenyl) tetradecanoic acid]
[7]
  time of peak uptake by the kidney: 15 min
[7]; 5 minutes after injection
  uptake in the heart: high levels of uptake
  uptake in the liver: high levels of uptake
[7]; 30 minutes after injection
  uptake by the kidney after the peak: declining slightly
[7]; over the 30 minutes of the experiment
  maintenance of radioactivity in heart and liver: high levels of radioactivity generally being maintained
[7]; [9]
  radioactivity in blood: lower throughout the monitoring period
  radioactivity in skeletal muscle: lower throughout the monitoring period
  radioactivity in the lungs: lower throughout the monitoring period
[8]
  retention by the heart muscle compared to ^201 T1: longer retention
  time after injection over which clear images of the heart are obtained: as long as two hours after the injection
[8]; 60 minutes
  activity in the heart over the initial 60 minute period: remains essentially the same

Reference: patent US4524059A, “Fatty acid analogs” (The General Hospital Corporation, priority 1983, dated 1985)
